Assay results as given in patent publication US8586548B2, “NAP alpha-aminoisobutyric acid analog with neuroprotective activity” (Ramot at Tel-Aviv University, Ltd., priority 2009, dated 2013).
Non-standard residues stand in square brackets, D forms with d. No end group written: not given here. Aib = CC(C)(N)C(=O)O

Assays:
[1] = tested on: ADNP^+/− male mice; experiment: Morris water maze test; format: in vivo, mouse
Experimental: (§1) The heterozygous ADNP mice were generated as before (Pinhasov et al., Brain Res. Dev. Brain Res. 2003, 144:83-90; and Vulih-Shultzman et al., J Pharmacol Exp Ther. 2007, 323(2):438-49). To avoid any variability in results associated with the estrous cycle in females, only ADNP^+/− male mice are use for behavioral experiments.
(§2) Iso-NAP (NAXaaVSIXaaQ; SEQ ID NO:1) was dissolved in a vehicle solution, in which each milliliter included 7.5 mg of NaCl, 1.7 mg of citric acid monohydrate, 3 mg of disodium phosphate dihydrate, and 0.2 mg of benzalkonium chloride solution (50%). Iso-NAP or vehicle solution (DD) was administered to mice handheld in a semi-supine position with nostrils facing the investigator. A pipette tip was used to administer 2.5 μl/each nostril. The mouse was handheld until the solution is entirely absorbed. Nasal Iso-NAP application was performed daily, once a day, for 2 weeks for the Morris water maze test. In the 2nd week, Iso-NAP was applied 1 h before the daily test (see below), which was conducted for 5 consecutive days. In the passive avoidance test, all mice were treated for a total of 7 days, on the 7th day of treatment the test began. Iso-NAP was applied 1 h before the test.
The mouse is placed in a pool of water that is colored opaque with powdered non-fat milk, where it must swim to a hidden escape platform. The position of the platform is altered between days but remains constant within each day. Because it is in opaque water, the mouse cannot see the platform, and cannot rely on scent to find the escape route. As the mouse becomes more familiar with the task, it is able to find the platform more quickly.
Pool diameter—140 cm, Platform—clear plaxiglass, 12 cm in diameter, 2 cm below the surface of the water, Water temperature—22-23° C., Room temperature—26-28° C.
Mice are treated with Iso-NAP/vehicle and then habituated for 1 hour in the experimental room. […] The time requires to reach the platform in each trial is measured. […]

[2] = tested on: ADNP heterozygous male mice; experiment: Passive avoidance test; format: in vivo, mouse
Experimental: as §1, §2
The passive avoidance task is a fear-motivated avoidance task based on the mouse conflict between avoiding the light stimulus and approaching the dark chamber in which a painful shock is given. The mouse learns to refrain from stepping through a door to an apparently safer but previously punished dark compartment. The latency to refrain from crossing into the punished compartment serves as an index of the ability to avoid, and allows memory to be assessed (Johns Hopkins University, Department of Psychological and Brain Sciences, website: nbc.jhu.edu/protocols/PassiveAvoidanceProtocol.aspx). […]
The experiment is carried out for three days. […] The time to enter the dark compartment is recorded. […] The door is opened after 30 seconds, and the time it takes the mouse to enter the dark chamber is recorded. […] After 30 seconds (T0), the door is opened and the latency to enter the dark chamber is recorded. […]

## NAXaaVSIXaaQ (NA[Aib]VSI[Aib]Q) [Alpha-aminoisobutyric NAP, both prolines of NAP substituted]
[1]; 2 μg/5 μl/mouse/day intranasal, third day of testing, P<0.05
  Morris water maze performance (working memory) vs vehicle controls: performed better than controls
[1]; 30 μg/5 μl/mouse/day intranasal, day 2 P<0.05, day 3 P<0.07, listed as Iso-NAP
  Morris water maze performance (working memory) vs vehicle controls: better than control on testing days 2 and 3
[1]; 30 μg/5 μl/mouse/day intranasal, day 2 P<0.05, day 3 P<0.07, listed as IsoNAP
  Morris water maze performance (working memory) vs vehicle controls: seems to affect the spatial memory
[2]; 2 μg/mice intranasal, P<0.05
  latency to enter the dark room at T0 and T30 vs T-trial: entered the dark room significantly slower than on the T-trial
[2]; 2 μg/mice, conclusion from Morris water maze and passive avoidance tests
  effect on learning and memory (conclusion): seems to affect positively learning and memory
[2]; 30 μg/mice intranasal
  latency to enter the dark room: entered the dark room faster than the NAP2 group
